Data published in patent US20250026721A1, “COMPOUNDS AND METHODS FOR MODULATING RAS-PI3K” (Vividion Therapeutics, Inc., priority 2023, published 2025).

Columns and labels:
PIK3CA = molecular target: T1, PIK3CA (Homo sapiens, UniProt P42336); assay: In vitro ELISA target engagement assay for PIK3CA in Jurkat cellular lysate (competition with PIK3CA Biotin Probe); format: binding; conditions: 1 hour at rt, then 500 nM PIK3CA Biotin Probe, read-out: Elisa Target Engagement Assay (TE50)
T1 construct: endogenous in cells; host or cells: Jurkat cell lysate
Outline: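 Competition format in Jurkat lysate: compound (serial dilutions, top 200 μM) for 1 h at rt, then 500 nM final biotinylated PIK3CA probe for 1 h at rt. Sandwich ELISA with capture antibody and Neutravidin-HRP luminescence read-out measured probe-labelled PIK3CA, giving TE50.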

PIK3CA_C242 = molecular target: T2, PIK3CA_C242 (Homo sapiens, UniProt P42336); assay: Proteomic TE50 (IA-DTB / TMT mass spectrometry) in Jurkat cell lysate; format: binding; conditions: 1 hour at rt, 7-point dose response
T2 construct: endogenous in cells; host or cells: Jurkat cell lysate
Outline: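 Cysteine engagement was read by targeted TMT MS3 of the IA-DTB-labelled, streptavidin-enriched C242 tryptic peptide. Beforehand, Jurkat lysate was exposed to a 7-point 1:5 compound series for 1 h at rt, then to 200 μM IA-DTB for 1 h. Reporter S/N curves gave TE50.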

T2 sequence (P42336 whole entry): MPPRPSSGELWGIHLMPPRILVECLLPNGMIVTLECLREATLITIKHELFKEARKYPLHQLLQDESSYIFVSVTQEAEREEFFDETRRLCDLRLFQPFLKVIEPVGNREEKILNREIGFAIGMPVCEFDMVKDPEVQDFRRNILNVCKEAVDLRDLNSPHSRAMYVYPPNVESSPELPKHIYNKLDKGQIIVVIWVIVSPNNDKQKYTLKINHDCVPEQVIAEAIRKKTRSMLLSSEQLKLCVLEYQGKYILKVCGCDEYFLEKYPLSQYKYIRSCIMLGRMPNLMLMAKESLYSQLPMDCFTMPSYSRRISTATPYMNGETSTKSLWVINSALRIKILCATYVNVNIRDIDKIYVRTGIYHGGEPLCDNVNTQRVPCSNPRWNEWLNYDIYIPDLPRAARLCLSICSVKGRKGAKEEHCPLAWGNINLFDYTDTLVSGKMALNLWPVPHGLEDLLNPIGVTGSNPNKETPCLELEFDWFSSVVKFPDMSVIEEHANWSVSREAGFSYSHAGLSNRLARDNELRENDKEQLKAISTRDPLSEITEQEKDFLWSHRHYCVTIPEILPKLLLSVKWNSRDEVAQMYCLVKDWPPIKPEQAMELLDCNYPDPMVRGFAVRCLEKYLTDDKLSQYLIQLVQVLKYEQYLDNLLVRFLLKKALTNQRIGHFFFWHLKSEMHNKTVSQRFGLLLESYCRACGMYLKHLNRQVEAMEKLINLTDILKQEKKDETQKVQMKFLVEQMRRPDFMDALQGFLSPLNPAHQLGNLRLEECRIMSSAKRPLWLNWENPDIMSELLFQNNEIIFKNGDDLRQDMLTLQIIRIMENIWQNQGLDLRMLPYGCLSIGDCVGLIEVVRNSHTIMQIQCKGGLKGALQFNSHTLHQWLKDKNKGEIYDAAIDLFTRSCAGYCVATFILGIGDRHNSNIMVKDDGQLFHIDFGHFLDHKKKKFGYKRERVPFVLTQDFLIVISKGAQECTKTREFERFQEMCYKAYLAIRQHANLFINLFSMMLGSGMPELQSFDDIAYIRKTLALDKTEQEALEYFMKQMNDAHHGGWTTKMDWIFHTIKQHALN
T2 sequence (P27986 whole entry partner): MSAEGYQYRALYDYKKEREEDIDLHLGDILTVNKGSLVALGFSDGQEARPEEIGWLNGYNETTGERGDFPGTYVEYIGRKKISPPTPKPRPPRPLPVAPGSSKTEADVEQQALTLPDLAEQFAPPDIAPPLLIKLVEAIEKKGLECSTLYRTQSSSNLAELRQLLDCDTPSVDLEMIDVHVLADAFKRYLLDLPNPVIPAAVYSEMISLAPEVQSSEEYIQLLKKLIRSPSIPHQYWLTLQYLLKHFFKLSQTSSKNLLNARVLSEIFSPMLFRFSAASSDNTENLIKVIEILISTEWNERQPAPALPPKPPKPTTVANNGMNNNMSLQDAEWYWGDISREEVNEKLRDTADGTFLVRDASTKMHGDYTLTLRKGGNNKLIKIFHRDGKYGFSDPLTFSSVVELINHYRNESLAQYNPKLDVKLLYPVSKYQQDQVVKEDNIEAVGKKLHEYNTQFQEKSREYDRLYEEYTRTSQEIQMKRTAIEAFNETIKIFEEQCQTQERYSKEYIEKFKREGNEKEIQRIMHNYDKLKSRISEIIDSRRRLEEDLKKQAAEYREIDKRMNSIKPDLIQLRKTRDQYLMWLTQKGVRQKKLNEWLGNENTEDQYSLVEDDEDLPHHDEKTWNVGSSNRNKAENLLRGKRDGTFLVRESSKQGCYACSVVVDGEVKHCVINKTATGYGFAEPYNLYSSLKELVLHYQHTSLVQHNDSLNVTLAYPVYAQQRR
T1 sequence (P42336 whole entry): as the sequence (P42336 whole entry) above
T1 sequence (P27986 whole entry partner): as the sequence (P27986 whole entry partner) above

Row | IC50 (PIK3CA) | IC50 (PIK3CA_C242) | SMILES
1 | 570 nM | 507 nM | COc1cccc(-c2cc(F)ccc2S(=O)(=O)N2CCC(F)(C(=O)N[C@@H](C)/C=C\S(C)(=O)=O)CC2)c1 [Compound 9, (S,Z)-4-fluoro-1-((5-fluoro-3′-methoxy-[1,1′-biphenyl]-2-yl)sulfonyl)-N-(4-(methylsulfonyl)but-3-en-2-yl)piperidine-4-carboxamide]
2 | 320 nM | 275 nM | CCOc1cccc(-c2cc(Cl)ccc2S(=O)(=O)N2CCC(F)(C(=O)N[C@@H](C)/C=C\S(C)(=O)=O)CC2)c1 [Compound 10, (S,Z)-1-((5-chloro-3′-ethoxy-[1,1′-biphenyl]-2-yl)sulfonyl)-4-fluoro-N-(4-(methylsulfonyl)but-3-en-2-yl)piperidine-4-carboxamide]
3 | 200 nM | 210 nM | COc1ccc(Cl)c(-c2cc(Cl)ccc2S(=O)(=O)N2CCC(F)(C(=O)N[C@@H](C)/C=C\S(C)(=O)=O)CC2)c1 [Compound 16, (S,Z)-1-((2′,5-dichloro-5′-methoxy-[1,1′-biphenyl]-2-yl)sulfonyl)-4-fluoro-N-(4-(methylsulfonyl)but-3-en-2-yl)piperidine-4-carboxamide]
4 | 680 nM | 462 nM | C[C@H](/C=C\S(C)(=O)=O)NC(=O)C1(F)CCN(S(=O)(=O)c2ccc(Cl)cc2-c2ccccc2)CC1 [Compound 20, (R,Z)-1-((5-chloro-[1,1′-biphenyl]-2-yl)sulfonyl)-4-fluoro-N-(4-(methylsulfonyl)but-3-en-2-yl)piperidine-4-carboxamide]
5 | 1000 nM | 1230 nM | COc1ccc(S(=O)(=O)N2CCC(F)(C(=O)N[C@H](C)/C=C\S(C)(=O)=O)CC2)c(-c2ccccc2)c1 [Compound 21, (R,Z)-4-fluoro-1-((5-methoxy-[1,1′-biphenyl]-2-yl)sulfonyl)-N-(4-(methylsulfonyl)but-3-en-2-yl)piperidine-4-carboxamide]
6 | 290 nM | 238 nM | COc1ccc(S(=O)(=O)N2CCC(F)(C(=O)N[C@H](C)/C=C\S(C)(=O)=O)CC2)c(-c2ccccc2Cl)c1 [Compound 25, (R,Z)-1-((2′-chloro-5-methoxy-[1,1′-biphenyl]-2-yl)sulfonyl)-4-fluoro-N-(4-(methylsulfonyl)but-3-en-2-yl)piperidine-4-carboxamide]
7 | 384 nM | 371 nM | COc1ccc(S(=O)(=O)N2CCC(F)(C(=O)N[C@H](C)/C=C\S(C)(=O)=O)CC2)c(-c2cccc(F)c2Cl)c1 [Compound 26, (R,Z)-1-((2′-chloro-3′-fluoro-5-methoxy-[1,1′-biphenyl]-2-yl)sulfonyl)-4-fluoro-N-(4-(methylsulfonyl)but-3-en-2-yl)piperidine-4-carboxamide]
8 | 450 nM | 430 nM | COc1ccc(S(=O)(=O)N2CCC(F)(C(=O)N[C@H](C)/C=C\S(C)(=O)=O)CC2)c(-c2ccc(F)cc2Cl)c1 [Compound 27, (R,Z)-1-((2′-chloro-4′-fluoro-5-methoxy-[1,1′-biphenyl]-2-yl)sulfonyl)-4-fluoro-N-(4-(methylsulfonyl)but-3-en-2-yl)piperidine-4-carboxamide]
9 | 570 nM | 390 nM | COc1cc(-c2ccccc2Cl)c(S(=O)(=O)N2CCC(F)(C(=O)N[C@H](C)/C=C\S(C)(=O)=O)CC2)cc1Cl [Compound 29, (R,Z)-1-((2′,4-dichloro-5-methoxy-[1,1′-biphenyl]-2-yl)sulfonyl)-4-fluoro-N-(4-(methylsulfonyl)but-3-en-2-yl)piperidine-4-carboxamide]
10 | 930 nM | 820 nM | COc1ccc(S(=O)(=O)N2CCC(F)(C(=O)N[C@H](C)/C=C\S(C)(=O)=O)CC2)c(-c2ccccc2Cl)c1Cl [Compound 32, 1-((2′,6-dichloro-5-methoxy-[1,1′-biphenyl]-2-yl)sulfonyl)-4-fluoro-N-((R,Z)-4-(methylsulfonyl)but-3-en-2-yl)piperidine-4-carboxamide]
11 | 520 nM | 540 nM | CC[C@@H](/C=C\S(C)(=O)=O)NC(=O)C1(F)CCN(S(=O)(=O)c2ccc(Cl)cc2-c2cccc(OC)c2)CC1 [Compound 83, (S,Z)-1-((5-chloro-3′-methoxy-[1,1′-biphenyl]-2-yl)sulfonyl)-4-fluoro-N-(1-(methylsulfonyl)pent-1-en-3-yl)piperidine-4-carboxamide]
12 | 510 nM | 450 nM | CC[C@@H](/C=C\S(C)(=O)=O)NC(=O)C1(F)CCN(S(=O)(=O)c2ccc(Cl)cc2-c2ccccc2)CC1 [Compound 84, (S,Z)-1-((5-chloro-[1,1′-biphenyl]-2-yl)sulfonyl)-4-fluoro-N-(1-(methylsulfonyl)pent-1-en-3-yl)piperidine-4-carboxamide]
13 | 390 nM | 400 nM | COc1ccc(Cl)c(-c2cc(N(C)C)ccc2S(=O)(=O)N2CCC(F)(C(=O)N[C@@H](C)/C=C\S(C)(=O)=O)CC2)c1 [Compound 87, (S,Z)-1-((2′-chloro-5-(dimethylamino)-5′-methoxy-[1,1′-biphenyl]-2-yl)sulfonyl)-4-fluoro-N-(4-(methylsulfonyl)but-3-en-2-yl)piperidine-4-carboxamide]
14 | 79 nM | 86 nM | C[C@@H](/C=C\S(C)(=O)=O)NC(=O)C1(F)CCN(S(=O)(=O)c2ccc(N(C)C)cc2-c2ccccc2)CC1 [Compound 88, (S,Z)-1-((5-(dimethylamino)-[1,1′-biphenyl]-2-yl)sulfonyl)-4-fluoro-N-(4-(methylsulfonyl)but-3-en-2-yl)piperidine-4-carboxamide]

The next lines start with the molecule.

Row | SMILES | IC50 (PIK3CA) | IC50 (PIK3CA_C242)
15 | CCCCOc1cccc(-c2cc(Cl)ccc2S(=O)(=O)N2CCC(F)(C(=O)N[C@@H](C)/C=C\S(C)(=O)=O)CC2)c1 [Compound 13, (S,Z)-1-((3′-butoxy-5-chloro-[1,1′-biphenyl]-2-yl)sulfonyl)-4-fluoro-N-(4-(methylsulfonyl)but-3-en-2-yl)piperidine-4-carboxamide] | 480 nM | 340 nM
16 | CCCOc1cccc(-c2cc(Cl)ccc2S(=O)(=O)N2CCC(F)(C(=O)N[C@@H](C)/C=C\S(C)(=O)=O)CC2)c1 [Compound 14, (S,Z)-1-((5-chloro-3′-propoxy-[1,1′-biphenyl]-2-yl)sulfonyl)-4-fluoro-N-(4-(methylsulfonyl)but-3-en-2-yl)piperidine-4-carboxamide] | 470 nM | 330 nM
17 | C[C@@H](/C=C\S(C)(=O)=O)NC(=O)C1(F)CCN(S(=O)(=O)c2ccc(Cl)cc2-c2cccc(OC3CC3)c2)CC1 [Compound 15, (S,Z)-1-((5-chloro-3′-cyclopropoxy-[1,1′-biphenyl]-2-yl)sulfonyl)-4-fluoro-N-(4-(methylsulfonyl)but-3-en-2-yl)piperidine-4-carboxamide] | 410 nM | 400 nM
18 | COc1ccc(S(=O)(=O)N2CCC(F)(C(=O)N[C@H](C)/C=C\S(C)(=O)=O)CC2)c(-c2cccc(Cl)c2)c1 [Compound 22, (R,Z)-1-((3′-chloro-5-methoxy-[1,1′-biphenyl]-2-yl)sulfonyl)-4-fluoro-N-(4-(methylsulfonyl)but-3-en-2-yl)piperidine-4-carboxamide] | 770 nM | 785 nM
19 | COc1ccc(S(=O)(=O)N2CCC(F)(C(=O)N[C@H](C)/C=C\S(C)(=O)=O)CC2)c(-c2ccccc2C)c1 [Compound 24, (R,Z)-4-fluoro-1-((5-methoxy-2′-methyl-[1,1′-biphenyl]-2-yl)sulfonyl)-N-(4-(methylsulfonyl)but-3-en-2-yl)piperidine-4-carboxamide] | 170 nM | 232 nM
20 | COc1ccc(S(=O)(=O)N2CCC(F)(C(=O)N[C@H](C)/C=C\S(C)(=O)=O)CC2)c(-c2c(F)cccc2Cl)c1 [Compound 30, 1-((2′-chloro-6′-fluoro-5-methoxy-[1,1′-biphenyl]-2-yl)sulfonyl)-4-fluoro-N-((R,Z)-4-(methylsulfonyl)but-3-en-2-yl)piperidine-4-carboxamide] | 560 nM | 340 nM
21 | C[C@H](/C=C\S(C)(=O)=O)NC(=O)C1(F)CCN(S(=O)(=O)c2ccc(F)cc2-c2ccccc2Cl)CC1 [Compound 31, (R,Z)-1-((2′-chloro-5-fluoro-[1,1′-biphenyl]-2-yl)sulfonyl)-4-fluoro-N-(4-(methylsulfonyl)but-3-en-2-yl)piperidine-4-carboxamide] | 760 nM | 620 nM
22 | C[C@H](/C=C\S(C)(=O)=O)NC(=O)C1(F)CCN(S(=O)(=O)c2ccc(OC(F)(F)F)cc2-c2ccccc2Cl)CC1 [Compound 34, (R,Z)-1-((2′-chloro-5-(trifluoromethoxy)-[1,1′-biphenyl]-2-yl)sulfonyl)-4-fluoro-N-(4-(methylsulfonyl)but-3-en-2-yl)piperidine-4-carboxamide] | 550 nM | 700 nM
23 | N#C/C=C/CNC(=O)C1(F)CCN(S(=O)(=O)c2ccc(Br)cc2-c2ccccc2Cl)CC1 [Compound 68, (E)-1-((5-bromo-2′-chloro-[1,1′-biphenyl]-2-yl)sulfonyl)-N-(3-cyanoallyl)-4-fluoropiperidine-4-carboxamide] | 465 nM | 330 nM
24 | N#C/C=C\CNC(=O)C1(F)CCN(S(=O)(=O)c2ccc(Br)cc2-c2ccccc2Cl)CC1 [Compound 70, (Z)-1-((5-bromo-2′-chloro-[1,1′-biphenyl]-2-yl)sulfonyl)-N-(3-cyanoallyl)-4-fluoropiperidine-4-carboxamide] | 95 nM | 70 nM
25 | COc1cccc(-c2cc(N(C)C)ccc2S(=O)(=O)N2CCC(F)(C(=O)N[C@@H](C)/C=C\S(C)(=O)=O)CC2)c1Cl [Compound 90, (S,Z)-1-((2′-chloro-5-(dimethylamino)-3′-methoxy-[1,1′-biphenyl]-2-yl)sulfonyl)-4-fluoro-N-(4-(methylsulfonyl)but-3-en-2-yl)piperidine-4-carboxamide] | 250 nM | 330 nM
